Test results from US20240350494A1, “THERAPEUTIC MODULATION OF INTEGRINS” (Pliant Therapeutics, Inc., priority 2021, published 2024).

Experiments:
SMAD3 phosphorylation = assay: pSMAD3/SMAD3 in lung tissue and BALF of healthy mice; type: in vivo; details: 4 days of treatment, dose dependent
Description: It has been previously shown that inhibition of αVβ6 in the lung can be detected though measurement of phospho-SMAD (pSMAD) in alveolar macrophages. Alveolar macrophages are known to operate in a unique niche in the lung, distinct from interstitial macrophages. SMAD3 is a downstream target of the active TGF-β cytokine binding its receptor and in alveolar macrophages it is phosphorylated by homoeostatic levels of TGF-β. Accordingly, it was desirable to know whether inhibition of TGF-β activation using the disclosed compounds would result in reduced SMAD2 and SMAD3 phosphorylation.
FIG. 2A is a graph of PSMAD3/SMAD3 in lung tissue from healthy mice administered PBS vehicle and varying levels of compound 5 for 4 days. FIG. 2B is a graph of PSMAD3/SMAD3 in BALF drawn from the same healthy mice administered PBS vehicle and varying levels of compound 5 for 4 days.

lung Col1a1 expression = assay: Precision cut lung slices, chronic bleomycin exposure, Col1a1 expression; type: cell-based, mice (C57BL/6); details: 7 days culture
Experimental: (§1) Mice (C57BL/6) were administered 3 U/kg of bleomycin (Teva Pharmaceuticals; North Wales, PA) on Day 0 and 1 U/kg of bleomycin on days 14, 28, 42 and 56 via oropharyngeal aspiration while under anesthesia. At day 70, 14 days after the final bleomycin insult, precision cut lung slices were obtained. Following euthanization, 2% low gelling temp agarose was injected into the mouse lungs via the trachea. […] The lobes were then subjected to precision slicing to obtain samples for culture using a microtome (Compresstome VF-300-OZ, Precisionary; Greenville, NC). Individual slices were distributed in a multiwell culture plate and cultured for 7 days under control (DMSO) and test compound conditions. The viability of the slices over the course of culturing was confirmed by WST-1 assay of mitochondrial activity.
During the culture period, slices in the control group were treated with DMSO and slices in the test group were treated with a DMSO solution of one of: the selective antibody αVβ6 inhibitor 3G9; the αVβ1-selective small molecule inhibitor; a combination of the selective antibody αVβ6 inhibitor 3G9 and the αVβ1-selective small molecule inhibitor; compound 5; and the small molecule ALK5 inhibitor. The selective αVβ1 and αVβ6 integrin inhibitors were analyzed at ≥their respective IC90 concentrations for inhibition of TGF-beta activation. Compound 5 was run at approximate IC50 for inhibition of TGF-beta activation by αVβ6.
as §1, with “following” for “after”
During the culture period, slices in the control group were treated with DMSO and slices in the test group were treated with a DMSO solution of one of: compound 5; nintedanib; pirfenidone; a combination of nintedanib and compound 5; a combination of pirfenidone and compound 5; or the small molecule ALK5 inhibitor. Compound 5 was […] effective to equal or exceed its respective IC50 values at αVβ6 and αVβ1. […] Nintendanib and pirfenidone were analyzed at concentrations 10× their reported therapeutic concentrations.

COL1A1 expression = assay: Precision cut lung slices from human IPF explants, COL1A1 expression; type: cell-based
Description: Explanted lung tissue was obtained from human IPF subjects and inflated with agarose as described in the preceding examples. Biopsy cores were obtained from the agarose-inflated lung tissue. The biopsy cores were subjected to precision slicing to obtain several hundred μm thick. Individual slices were distributed in a multiwell culture plate and cultured for […] under control (DMSO) and test compound conditions. The viability of the slices over the course of culturing was confirmed by WST-1 assay of mitochondrial activity.
PCLS from 5-7 idopathic pulmonary fibrosis (IPF) lung tissue samples were cultured for seven days with one of: DMSO; Compound 5 at 200 nM; nintedanib at 75 nM; pirfenidone at 50 μm; a combination of Compound 5 at 200 nM and nintedanib at 75 nM; a combination of Compound 5 at 200 nM and pirfenidone at 50 μm; or an Alk5 inhibitor at 1 μm. […] FIG. 4D is a bar graph showing relative expression of COL1A1 in precision cut lung slices (PCLS) from idopathic pulmonary fibrosis (IPF) lung tissue upon exposure to Compound 5, clinical standard of care compounds nintedanib (Nin) and pirfenidone (Pirf), and an ALK5 inhibitor, all versus DMSO control.
PCLS from a single IPF lung tissue sample were cultured for seven days with Compound 5 at concentrations of 200 μM, 2 nM, 60 nM, 200 nM, and 1 μM, along with 0.1% DMSO control and an Alk5 inhibitor at 1 μM. […] COL1A1 expression is also graphed for the PCLS in the presence of 0.1% DMSO control, and an Alk5 inhibitor at 1 μM.

pSMAD2:SMAD2 ratio = pSMAD2:SMAD2 ratio in BAL of healthy subjects (20 or 40 mg daily); type: in vivo, human; details: all subjects with Cmax above 700 ng/mL; Day 7; FIG. 6G
Experimental: In order to evaluate the change of pSMAD2 as a biomarker of TGF-β activity following administration of an integrin inhibitor, and to determine a therapeutically effective dosage and an effective blood plasma Cmax of the integrin inhibitor, healthy subjects were administered compound 5, a dual selective αVβ6/αVβ1-integrin inhibitor, and the corresponding Cmax levels and decrease in phosphorylation levels and were determined.
Healthy non-smoking adult males without history of lung disease were selected as subjects and were randomized into 4 cohorts. Broncoalevaolar lavage samples were obtained from all subjects 1 day prior to start of treatment. Cohorts 1 and 2 were administered 20 mg of a compound daily, wherein 3 subjects were administered the dual selective αVβ6/αVβ1-integrin inhibitor (compound 5) per every 1 subject receiving a placebo compound. Cohorts 3 and 4 were administered 40 mg of a compound daily, wherein 3 subjects were administered the dual selective αVβ6/αVβ1-integrin inhibitor (compound 5) per every 1 subject receiving a placebo compound. BAL samples and blood samples were taken from all subjects on Day −1 (baseline) and on Day 7 (end of treatment).

With `COCCN(CCCCc1ccc2c(n1)NCCC2)CC[C@H](Nc1ncnc2ccccc12)C(=O)O` [Compound 5, (S)-4-((2-methoxyethyl)(4-(5,6,7,8-tetrahydro-1,8-naphthyridin-2-yl)butyl)amino)-2-(quinazolin-4-ylamino)butanoic acid] the “SMAD3 phosphorylation (PSMAD3/SMAD3) in lung tissue” value (SMAD3 phosphorylation; FIG. 2A) was “approximately 50 % of the untreated levels”, the “SMAD3 phosphorylation (PSMAD3/SMAD3) in cells isolated from BALF” value (SMAD3 phosphorylation; FIG. 2B) was “approximately 50 % of the untreated levels” and the “lung Col1a1 expression, normalized to DMSO control slices” value (lung Col1a1 expression; Compound 5 at approximate IC50 (αVβ6), selective inhibitors at ≥IC90, ALK5 inhibitor at 10× IC50, FIG. 3B) was “decreased lung Col1a1 expression substantially”. The “decrease of lung Col1a1 expression compared with combined 3G9 and αVβ1-selective inhibitor” value (lung Col1a1 expression; FIG. 3B) was “to a greater extent than combined administration”, the “lung slice Col1a1 expression compared to DMSO vehicle control slices” value (lung Col1a1 expression; nintedanib and pirfenidone at 10× therapeutic concentrations, ALK5 inhibitor at 10× IC50, FIG. 4A) was “substantial, statistically significant (p<0.01 vs vehicle) decrease” and the “lung Col1a1 expression, normalized to DMSO control slices” value (COL1A1 expression; human IPF slices, 3 days, 3G9 ≥400 ng/mL, compound 5 179 nM, ALK5 inhibitor 1 μM, FIG. 4C) was “substantial, statistically significant (p<0.01 vs vehicle) decrease”. For the same molecule, the “COL1A1 expression, concentration dependence” value (COL1A1 expression; single IPF sample, seven days, 200 μM, 2 nM, 60 nM, 200 nM, 1 μM, FIG. 4E) was “dose dependent reduction” and the “reduction in pSMAD2:SMAD2 ratio in BAL compared to the placebo group” value (pSMAD2:SMAD2 ratio) was no less than 50%.
